Test results as given in patent US6420357B1, “Cytotoxic alkaloid derivatives including Asmarine A and B isolated from a sponge” (Instituto Biomar, S.A., priority 1997, dated 2002).

Tests used:
Type in all cases: cell-based
[1] = tested on: HT-29 (monolayer culture of a human colon carcinoma); assay: in vitro cytotoxic assay, HT-29 cells; conditions: 72 h, three days of incubation, Crystal Violet staining, approximate IC50
Method: (§1) Cells were maintained in logarithmic phase of growth in Eagle's Minimum Essential Medium, with Earle's Balanced Salts, with 2.0 mM L-glutamine, with non-essential amino acids, without sodium bicarbonate (EMEM/neaa); supplemented with 10% Fetal Calf Serum (FCS), 10^−2 M sodium bicarbonate and 0,1 g/l penicillin-G+streptomycin sulfate.
(§2) A screening procedure has been carried out to determine and compare the antitumor activity of these compounds, using an adapted form of the method described by Bergeron et al. (Reference 3). The antitumor cells employed were P-388 (suspension culture of a lymphoid neoplasm from DBA/2 mouse), A-549 (monolayer culture of a human lung carcinoma), HT-29 (monolayer culture of a human colon carcinoma) and MEL-28 (monolayer culture of a human melanoma).
(§3) A-549, HT-29 and MEL-28 cells were seeded into 16 mm wells at 2×10^4 cells per well in 1 ml aliquots of MEM 10FCS containing the indicated concentration of drug. A separate set of cultures without drug was seeded as control growth to ensure that cells remained in exponential phase of growth. All determinations were carried out in duplicate. After three days of incubation at 37° C., 10% CO2 in a 98% humid atmosphere, the wells were stained with 0.1% Crystal Violet. An approximately IC50 was determined by comparing the growth in wells with drug to the growth in wells control.

[2] = tested on: A-549 (monolayer culture of a human lung carcinoma); assay: in vitro cytotoxic assay, A-549 cells; conditions: A549, 72 h, three days of incubation, Crystal Violet staining, approximate IC50
Method: as §1, §2, §3

[3] = tested on: MEL-28 (monolayer culture of a human melanoma); assay: in vitro cytotoxic assay, MEL-28 cells; conditions: SK-MEL-28, 72 h, three days of incubation, Crystal Violet staining, approximate IC50
Method: as §1, §2, §3

[4] = tested on: P-388 (suspension culture of a lymphoid neoplasm from DBA/2 mouse); assay: in vitro cytotoxic assay, P-388 cells; conditions: P388, 72 h, three days of incubation, approximate IC50 by growth vs control wells
Method: as §1, §2
as §3, with “P-388” for “A-549, HT-29 and MEL-28”, “1×10^4” for “2×10^4”, “5FCS” for “10FCS”, “an” for “the wells were stained with 0.1% Crystal Violet. An”

## C=C1CCC[C@@H]2[C@@](C)(CC[C@@]3(C)CCn4cnc5ncnc(c54)N3O)[C@H](C)CC[C@@]12C [Asmarine A]
[1]
  IC50: 1.18 µM
[2]
  IC50: 1.18 µM
[3]
  IC50: 1.18 µM
[4]
  IC50: 1.18 µM

## C=C1CCC[C@H]2[C@@](C)(CC[C@@]3(C)CCn4cnc5ncnc(c54)N3O)[C@H](C)CC[C@@]12C [Asmarine B]
[1]
  IC50: 0.12 µM
[2]
  IC50: 0.12 µM
[3]
  IC50: 0.24 µM
[4]
  IC50: 0.24 µM
